In the experiment the target is T1, HCV polymerase (Hepatitis C virus genotype 1b, UniProt P26663).
T1 construct: a region encoding NS5B (J Virol 1991 March, 65(3), 1105-13, 544 amino acids after deletion of 47 amino acids on the C-terminal); 6xHis (C); made in house; host or cells: Escherichia coli
In words: biochemical. Set-up: species or system HCV BK strain. Put shortly:
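His-tagged NS5B (BK strain, 47-aa C-terminal deletion, E. coli-expressed) at 0.5 μg/ml copied 5 μg/ml run-off RNA bearing the HCV 3′ UTR with 2 μM UTP plus [3H]UTP, 50 μM ATP/GTP, in pH 7.5 Tris with 5 mM MgCl2, 25 °C, 90 min. TCA-precipitated RNA was counted and IC50 calculated.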

For 26 compounds, IC50 results are on record in patent US20070049593A1 (priority 2004, published 2007).

Counter-ions that a name gives are not always drawn.

T1 sequence (P26663 2420-2963): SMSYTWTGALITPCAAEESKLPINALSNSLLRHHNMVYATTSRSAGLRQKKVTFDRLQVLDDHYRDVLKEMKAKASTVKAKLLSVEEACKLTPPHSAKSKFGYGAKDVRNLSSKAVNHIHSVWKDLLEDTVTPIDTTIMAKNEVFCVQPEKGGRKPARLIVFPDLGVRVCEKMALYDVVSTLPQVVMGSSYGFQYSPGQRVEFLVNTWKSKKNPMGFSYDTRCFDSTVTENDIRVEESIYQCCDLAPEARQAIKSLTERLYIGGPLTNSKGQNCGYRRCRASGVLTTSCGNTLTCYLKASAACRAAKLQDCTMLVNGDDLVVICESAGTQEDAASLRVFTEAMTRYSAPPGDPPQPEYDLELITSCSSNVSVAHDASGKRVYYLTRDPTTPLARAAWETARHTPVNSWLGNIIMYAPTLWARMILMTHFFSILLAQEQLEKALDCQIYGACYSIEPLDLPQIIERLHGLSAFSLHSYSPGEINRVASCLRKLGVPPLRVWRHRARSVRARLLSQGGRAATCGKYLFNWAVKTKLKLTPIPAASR

For the compound `CC(C)(C)OC(=O)N1CCCC(Oc2ccc3c(c2)OCCn2c-3c(C3CCCCC3)c3ccc(C(=O)O)cc32)C1` (centres unmarked) [Example 2-11, 3-(1-tert-butoxycarbonylpiperidin-3-yloxy)-12-cyclohexyl-6,7-dihydro-5-oxa-7a-azadibenzo[a,e]azulene-9-carboxylic acid], the IC50 (as a rule, the concentration that gives 50% inhibition) was under 100 nM. In turn, `CS(=O)(=O)c1ccc(N2CCOCC2)c(COc2ccc3c(c2)OCCn2c-3c(C3CCCCC3)c3ccc(C(=O)O)cc32)c1` [Example 2-12, 12-cyclohexyl-3-[5-methanesulfonyl-2-(morpholin-4-yl)benzyloxy]-6,7-dihydro-5-oxa-7a-azadibenzo[a,e]azulene-9-carboxylic acid monohydrochloride] showed an IC50 of under 100 nM. `CS(=O)(=O)N1CCN(c2ccc(N3CCCC3=O)cc2COc2ccc3c(c2)OCCn2c-3c(C3CCCCC3)c3ccc(C(=O)O)cc32)CC1` [Example 2-13, 12-cyclohexyl-3-[2-(4-methanesulfonylpiperazin-1-yl)-5-(2-oxopyrrolidin-1-yl)benzyloxy]-6,7-dihydro-5-oxa-7a-azadibenzo[a,e]azulene-9-carboxylic acid monohydrochloride] gave an IC50 of under 100 nM.

In the case of `O=C(O)c1ccc2c(C3CCCCC3)c3n(c2c1)CCOc1cc(OCc2ccccc2N2CCOCC2)ccc1-3` [Example 2-14, 12-cyclohexyl-3-[2-(morpholin-4-yl)benzyloxy]-6,7-dihydro-5-oxa-7a-azadibenzo[a,e]azulene-9-carboxylic acid monohydrochloride], the IC50 is under 100 nM. In turn, `CC(=O)Nc1ccc(N2CCOCC2)c(COc2ccc3c(c2)OCCn2c-3c(C3CCCCC3)c3ccc(C(=O)O)cc32)c1` [Example 2-15, 3-[5-acetylamino-2-(morpholin-4-yl)benzyloxy]-12-cyclohexyl-6,7-dihydro-5-oxa-7a-azadibenzo[a,e]azulene-9-carboxylic acid monohydrochloride] had an IC50 of under 100 nM. As for `CN(C)CC(=O)Nc1ccc(N2CCOCC2)c(COc2ccc3c(c2)OCCn2c-3c(C3CCCCC3)c3ccc(C(=O)O)cc32)c1` [Example 2-16, 12-cyclohexyl-3-[5-(2-dimethylaminoacetylamino)-2-(morpholin-4-yl)benzyloxy]-6,7-dihydro-5-oxa-7a-azadibenzo[a,e]azulene-9-carboxylic acid dihydrochloride], the IC50 was under 100 nM. The value for `CS(=O)(=O)Nc1ccc(N2CCOCC2)c(COc2ccc3c(c2)OCCn2c-3c(C3CCCCC3)c3ccc(C(=O)O)cc32)c1` [Example 2-17, 12-cyclohexyl-3-[5-methanesulfonylamino-2-(morpholin-4-yl)benzyloxy]-6,7-dihydro-5-oxa-7a-azadibenzo[a,e]azulene-9-carboxylic acid monohydrochloride] was under 100 nM; that for `CC(=O)N(C)c1ccc(N2CCOCC2)c(COc2ccc3c(c2)OCCn2c-3c(C3CCCCC3)c3ccc(C(=O)O)cc32)c1` [Example 2-18, 3-[5-(N-acetyl-N-methylamino)-2-(morpholin-4-yl)benzyloxy]-12-cyclohexyl-6,7-dihydro-5-oxa-7a-azadibenzo[a,e]azulene-9-carboxylic acid monohydrochloride] was under 100 nM; that for `CN(c1ccc(N2CCOCC2)c(COc2ccc3c(c2)OCCn2c-3c(C3CCCCC3)c3ccc(C(=O)O)cc32)c1)S(C)(=O)=O` [Example 2-19, 12-cyclohexyl-3-[5-(N-methanesulfonyl-N-methylamino)-2-(morpholin-4-yl)benzyloxy]-6,7-dihydro-5-oxa-7a-azadibenzo[a,e]azulene-9-carboxylic acid monohydrochloride] was under 100 nM. With `O=C(O)c1ccc2c(C3CCCCC3)c3n(c2c1)CCOc1cc(Oc2ccccc2)ccc1-3` [Example 2-20, 12-cyclohexyl-3-phenoxy-6,7-dihydro-5-oxa-7a-azadibenzo[a,e]azulene-9-carboxylic acid], the IC50 was under 100 nM.

The compound `O=C(CN1CCOCC1)Nc1ccc(N2CCOCC2)c(COc2ccc3c(c2)OCCn2c-3c(C3CCCCC3)c3ccc(C(=O)O)cc32)c1` [Example 2-21, 12-cyclohexyl-3-{2-(morpholin-4-yl)-5-[2-(morpholin-4-yl)acetylamino]benzyloxy}-6,7-dihydro-5-oxa-7a-azadibenzo[a,e]azulene-9-carboxylic acid dihydrochloride] showed an IC50 of under 100 nM.

Compound `CN(C(=O)CN1CCOCC1)c1ccc(N2CCOCC2)c(COc2ccc3c(c2)OCCn2c-3c(C3CCCCC3)c3ccc(C(=O)O)cc32)c1` [Example 2-22, 12-cyclohexyl-3-[5-{N-methyl-N-[2-(morpholin-4-yl)acetyl]amino}-2-(morpholin-4-yl)benzyloxy]-6,7-dihydro-5-oxa-7a-azadibenzo[a,e]azulene-9-carboxylic acid dihydrochloride] yielded an IC50 of under 100 nM. Take `CN(C)CC(=O)N(C)c1ccc(N2CCOCC2)c(COc2ccc3c(c2)OCCn2c-3c(C3CCCCC3)c3ccc(C(=O)O)cc32)c1` [Example 2-23, 12-cyclohexyl-3-(5-[N-(2-dimethylaminoacetyl)-N-methylamino]-2-(morpholin-4-yl)benzyloxy]-6,7-dihydro-5-oxa-7a-azadibenzo[a,e]azulene-9-carboxylic acid dihydrochloride]: the IC50 is under 100 nM.

`COC(=O)N1CCCC(Oc2ccc3c(c2)OCCn2c-3c(C3CCCCC3)c3ccc(C(=O)O)cc32)C1` (centres unmarked) [Example 2-24, 12-cyclohexyl-3-(1-methoxycarbonylpiperidin-3-yloxy)-6,7-dihydro-5-oxa-7a-azadibenzo[a,e]azulene-9-carboxylic acid] gave an IC50 of under 100 nM. `COc1ccc(Oc2ccc3c(c2)OCCn2c-3c(C3CCCCC3)c3ccc(C(=O)O)cc32)cc1` [Example 2-25, 12-cyclohexyl-3-(4-methoxyphenoxy)-6,7-dihydro-5-oxa-7a-azadibenzo[a,e]azulene-9-carboxylic acid] had an IC50 of under 100 nM. `O=C(O)c1ccc2c(C3CCCCC3)c3n(c2c1)CCOc1cc(Oc2cccc(Cl)c2)ccc1-3` [Example 2-26, 3-(3-chlorophenoxy)-12-cyclohexyl-6,7-dihydro-5-oxa-7a-azadibenzo[a,e]azulene-9-carboxylic acid] came in with a concentration for half-maximal inhibition (IC50) of under 100 nM. Turning to `CN(C)C(=O)CN1CCN(c2ccc(N3CCCC3=O)cc2COc2ccc3c(c2)OCCn2c-3c(C3CCCCC3)c3ccc(C(=O)O)cc32)CC1` [Example 2-27, 12-cyclohexyl-3-[2-(4-dimethylcarbamoylmethylpiperazin-1-yl)-5-(2-oxopyrrolidin-1-yl)benzyloxy]-6,7-dihydro-5-oxa-7a-azadibenzo[a,e]azulene-9-carboxylic acid dihydrochloride], the IC50 was under 100 nM.

`CCN1CCN(c2ccc(N3CCCC3=O)cc2COc2ccc3c(c2)OCCn2c-3c(C3CCCCC3)c3ccc(C(=O)O)cc32)CC1` [Example 2-28, 12-cyclohexyl-3-[2-(4-ethylpiperazin-1-yl)-5-(2-oxopyrrolidin-1-yl)benzyloxy]-6,7-dihydro-5-oxa-7a-azadibenzo[a,e]azulene-9-carboxylic acid dihydrochloride] gave an IC50 of under 100 nM. For `O=C(O)c1ccc2c(C3CCCCC3)c3n(c2c1)CCOc1cc(Oc2cccnc2)ccc1-3` [Example 2-29, 12-cyclohexyl-3-(pyridin-3-yloxy)-6,7-dihydro-5-oxa-7a-azadibenzo[a,e]azulene-9-carboxylic acid monohydrochloride], the IC50 was under 100 nM. On to `O=C(O)c1ccc2c(C3CCCCC3)c3n(c2c1)CCOc1cc(Oc2ccccc2Cl)ccc1-3` [Example 2-30, 3-(2-chlorophenoxy)-12-cyclohexyl-6,7-dihydro-5-oxa-7a-azadibenzo[a,e]azulene-9-carboxylic acid], for which the half-inhibitory concentration (IC50) is under 100 nM. As to `O=C(O)c1ccc2c(C3CCCCC3)c3n(c2c1)CCOc1cc(Oc2ccc(Cl)cc2)ccc1-3` [Example 2-31, 3-(4-chlorophenoxy)-12-cyclohexyl-6,7-dihydro-5-oxa-7a-azadibenzo[a,e]azulene-9-carboxylic acid], the IC50 was under 100 nM. The compound `Cc1cc(COc2ccc3c(c2)OCCn2c-3c(C3CCCCC3)c3ccc(C(=O)O)cc32)no1` [Example 2-32, 12-cyclohexyl-3-(5-methylisoxazol-3-ylmethoxy)-6,7-dihydro-5-oxa-7a-azadibenzo[a,e]azulene-9-carboxylic acid] yielded an IC50 of under 100 nM. The compound `CC(C)(C)OC(=O)NCCOc1ccc2c(c1)OCCn1c-2c(C2CCCCC2)c2ccc(C(=O)O)cc21` [Example 2-33, 3-[2-(tert-butoxycarbonylamino)ethoxy]-12-cyclohexyl-6,7-dihydro-5-oxa-7a-azadibenzo[a,e]azulene-9-carboxylic acid] registered an IC50 of under 100 nM. Consider `Cc1nc(COc2ccc3c(c2)OCCn2c-3c(C3CCCCC3)c3ccc(C(=O)O)cc32)cs1` [Example 2-34, 12-cyclohexyl-3-(2-methylthiazol-4-ylmethoxy)-6,7-dihydro-5-oxa-7a-azadibenzo[a,e]azulene-9-carboxylic acid], for which the IC50 was under 100 nM. `CC(C)(C)OC(=O)N1CCC[C@H]1COc1ccc2c(c1)OCCn1c-2c(C2CCCCC2)c2ccc(C(=O)O)cc21` [Example 2-35, 3-[(S)-1-(tert-butoxycarbonyl)pyrrolidin-2-ylmethoxy]-12-cyclohexyl-6,7-dihydro-5-oxa-7a-azadibenzo[a,e]azulene-9-carboxylic acid] came in with an IC50 of under 100 nM. Regarding `COC(=O)NCCOc1ccc2c(c1)OCCn1c-2c(C2CCCCC2)c2ccc(C(=O)O)cc21` [Example 2-36, 12-cyclohexyl-3-[2-(methoxycarbonylamino)ethoxy]-6,7-dihydro-5-oxa-7a-azadibenzo[a,e]azulene-9-carboxylic acid], the 50% inhibitory concentration (IC50) was under 100 nM.
